# Test results as given in publication PMC5820647, “Simultaneous Quantification of Gallic Acid, Bergenin, Epicatechin, Epicatechin Gallate, Isoquercitrin, and Quercetin-3-Rhamnoside in Rat Plasma by LC-MS/MS Method and Its Application to Pharmacokinetics after Oral Administration of Ardisia japonica Extract” (Evidence-based Complementary and Alternative Medicine : eCAM, 2018).
# Where two headings read alike, the source gives them in different places.
# Key:
# [1] = format: physicochemical; conditions: for Free-throw 3 times Accuracy: 3 cycles freezing at about −20°C and thawing at room temperature; for 24 h stability Accuracy: autosampler, room temperature
# Procedure: The standard stock solutions of gallic acid, bergenin, epicatechin, epicatechin gallate, isoquercitrin, and quercetin-3-rhamnoside were prepared by dissolving each separately in methanol to achieve a concentration of 1 mg mL^−1 for use as the stock solution. The three ISs including ferulic acid, puerarin, and warfarin were prepared using the same procedure as mentioned above with the concentration being 1 μg mL^−1. Calibration standard solutions were prepared by spiking the different concentrations of the standard mixture working solutions into plasma to achieve the concentration range of 2–500 ng mL^−1 for gallic acid; 2–500 ng mL^−1 for bergenin; 4–1000 ng mL^−1 for epicatechin; 2–500 ng mL^−1 for epicatechin gallate; 1–250 ng mL^−1 for isoquercitrin; and 0.4–100 ng mL^−1 for quercetin-3-rhamnoside. The QC samples were prepared by spiking 10 μL of the standard stock solutions into 100 μL of blank plasma to achieve LLOQ, low, medium and high concentrations of 2, 6, 20, and 200 ng mL^−1 for gallic acid; 2, 6, 20, and 200 ng mL^−1 for bergenin; 4, 12, 40, and 400 ng mL^−1 for epicatechin; 2, 6, 20, and 200 ng mL^−1 for epicatechin gallate; 1, 3, 10, and 100 ng mL^−1 for isoquercitrin; and 0.4, 1.2, 4, and 40 ng mL^−1 for quercetin-3-rhamnoside.
# The stability for 6 analysis compounds including 24 h stability (keeping the sample in autosampler conditions of room temperature for 24 h), three freeze/thaw cycles (subjected to 3 cycles of freezing at about −20°C and thawing at room temperature), and a long-term stability (stored at about −80°C for 4 weeks) of analytes in plasma was performed by analyzing QC samples at four different concentrations.
# [2] = Pharmacokinetic study in rats after oral administration of A. japonica extract (LC-MS/MS of plasma); format: in vivo; conditions: male, Sprague-Dawley; for Tmax: n = 10; for MRT: read-out: MRT(0–t24 h); for MRT inf: read-out: MRT(0–∞); for Cmax: read-out: peak plasma concentration (Cmax)
# Procedure: The LC-MS/MS system consisted of an Agilent 1200 system coupled with a binary pump (G1312A), an autosampler (G13678), a vacuum degasser (G1322A), and an API 3200 triple quadrupole mass spectrometer with an ESI source. […] The flow rate was set at 300 μL min^−1 and the inject volume was 10 μL.
# The analytes were determined in negative mode and quantified by multiple-reaction monitoring (MRM) mode. The source parameters were as follows: curtain gas, 25 psi; collision gas, 12 psi; ion spray voltage, −4500 V; temperature, 500°C; ion source gas 1, 45 psi; and ion source gas 2, 55 psi, respectively. Data acquisition was operated by Analyst 1.4.2 software (AB Sciex).
# 100 μL of plasma sample, 10 μL of the IS solutions, and 10 μL of 30% formic acid were added to the tube. Samples were vortex-mixed for 1 min, and 400 μL of acetonitrile was then used in precipitating the protein, after which they were centrifuged for 10 min at 14,000 rpm. The supernatant was transferred into another centrifuge tube and evaporated using nitrogen gas to dryness. The dried residue was reconstituted using 100 μL of methanol. The sample was further shaken and ultrasonicated for 2 min to ensure that it was well dissolved. It was subsequently centrifuged at 14,000 rpm for 10 min, and 10 μL aliquot of the solution was injected into the LC-MS/MS system for analysis.
# Ten male Sprague-Dawley rats (270–280 g) were kept at the animal center of Tianjin University of Traditional Chinese Medicine (Tianjin, China) under environmentally controlled conditions. […] According to the clinical dose used in human, the rat dose of A. japonicae extracts used was 0.93 g kg^−1. […] After blood sample collection into the heparinized 1.5 mL polythene tubes and centrifugation at 6000 rpm for 10 min, the plasma was transferred into clean tubes and stored in a freezer at −20°C until analysis. The pharmacokinetic parameters were determined using pharmacokinetics program (DAS1.0 Medical College of Wannan, China) and performing a one compartmental analysis.
# [3] = rat plasma, LLOQ QC concentration, n = 6
# [4] = rat plasma, high QC concentration, n = 6
# [5] = rat plasma, low QC concentration, n = 6
# [6] = rat plasma, medium QC concentration, n = 6
# [7] = rat, plasma, po, 0.93 g/kg, oral A. japonica extract 0.93 g kg^−1, one compartment model, read-out: AUC(0–24 h)
# [8] = rat, plasma, po, 0.93 g/kg, oral A. japonica extract 0.93 g kg^−1, read-out: area under the curve (AUC0–24 h)
# [9] = rat plasma, oral A. japonica extract 0.93 g kg^−1, one compartment model
# [10] = rat plasma, oral A. japonica extract 0.93 g kg^−1
# [11] = stored at about −80°C for 4 weeks, rat plasma, LLOQ QC concentration, n = 6
# [12] = stored at about −80°C for 4 weeks, rat plasma, high QC concentration, n = 6
# [13] = stored at about −80°C for 4 weeks, rat plasma, medium QC concentration, n = 6
# [14] = in vivo, rat plasma, oral A. japonica extract 0.93 g kg^−1, one compartment model
SMILES,"Free-throw 3 times Accuracy [1, 3]","Free-throw 3 times Accuracy [1, 4]","Free-throw 3 times Accuracy [1, 5]","Free-throw 3 times Accuracy [1, 6]","AUC(0-t) [2, 7]","AUC(0-t) [2, 8]","AUC(0-inf) [2, 9]","half-life [2, 9]","Tmax [2, 9]","MRT [2, 9]","MRT inf [2, 9]","Cmax [2, 10]","24 h stability Accuracy ([1]; LLOQ QC concentration, n = 6)","24 h stability Accuracy ([1]; high QC concentration, n = 6)","24 h stability Accuracy ([1]; low QC concentration, n = 6)","24 h stability Accuracy ([1]; medium QC concentration, n = 6)","Long stability (1 month) Accuracy [1, 11]","Long stability (1 month) Accuracy [1, 12]","Long stability (1 month) Accuracy [1, 13]",also measured
"Oc1cc(O)c2c(c1)O[C@H](c1ccc(O)c(O)c1)[C@H](O)C2 [Epicatechin, epicatechin]",105%,99.4%,111%,111%,,,,,,,,,,,,,,,,
"O=C(O)c1cc(O)c(O)c(O)c1 [Gallic acid, gallic acid]",92.5%,101%,114%,94.0%,194 ± 44 ng·h/mL,194 ± 44 ng·h/mL,200 ± 43.9 ng·h/mL,3.21 ± 4.56 h,1.4 ± 1.13 h,4.5 ± 1.15 h,5.33 ± 1.61 h,35.5 ± 10.2 ng/mL,116%,103%,111%,85.8%,95.6%,92.7%,98.4%,"Long stability (1 month) Accuracy ([1]; rat, 4 weeks): 101%"
"COc1c(O)cc2c(c1O)[C@@H]1O[C@H](CO)[C@@H](O)[C@H](O)[C@H]1OC2=O [Bergeninum, bergenin]",106%,87.3%,104%,94.0%,1740 ± 666 ng·h/mL,1740 ± 666 ng·h/mL,1840 ± 769 ng·h/mL,3.87 ± 1.62 h,0.86 ± 0.52 h,6.04 ± 1.05 h,7.26 ± 2.17 h,288 ± 107 ng/mL,,,,,,,,
"C[C@@H]1O[C@@H](Oc2c(-c3ccc(O)c(O)c3)oc3cc(O)cc(O)c3c2=O)[C@H](O)[C@H](O)[C@H]1O [Quercetin-3-rhamnoside, quercetin-3-rhamnoside]",115%,85.0%,90.4%,93.3%,,,,,,,,,93.7%,87.3%,96.3%,93.3%,114%,85.0%,90.6%,"AUC(0-inf) [2, 14]: 6.95 ± 20.7 ng·h/mL; half-life [2, 14]: 2.59 ± 2.8 h; Tmax [2, 14]: 0.5 ± 0.6 h; MRT [2, 14]: 5.08 ± 6.36 h; MRT inf [2, 14]: 7.09 ± 19.6 h; AUC(0-t) ([2]; in vivo, rat plasma, oral A. japonica extract 0.93 g kg^−1, read-out: area under the curve (AUC0–24 h)): 6.44 ± 12 ng·h/mL; Cmax ([2]; in vivo, rat plasma, oral A. japonica extract 0.93 g kg^−1): 7.08 ± 8.28 ng/mL; Long stability (1 month) Accuracy ([1]; stored at about −80°C for 4 weeks, rat plasma, low QC concentration, n = 6): 92.2%"
"O=c1c(O[C@@H]2O[C@H](CO)[C@@H](O)[C@H](O)[C@H]2O)c(-c2ccc(O)c(O)c2)oc2cc(O)cc(O)c12 [Isoquercitrin, isoquercitrin]",105%,91.0%,103%,96.9%,,,,,,,,,,,,,,,,
"O=C(O[C@@H]1Cc2c(O)cc(O)cc2O[C@@H]1c1ccc(O)c(O)c1)c1cc(O)c(O)c(O)c1 [Epicatechin gallate, epicatechin gallate]",109%,88.0%,98.4%,91.4%,,,,,,,,,,,,,,,,
